Test results published in PubChem BioAssay AID1963829 (Molecular Pharmacology Branch, DTP, NCI, 2024).
pIC50: −log10 of the molar value.

Tested on: 935938-334-R-J1-PDC complex spheroid viability
Assay: Anticancer human tumor 935938-334-R-J1-PDC patient-derived small intestine adenocarcinoma cell line growth inhibition [POLQ]
Conditions: for pIC50: curve of first compound; for viability, T/C: stronger effect = lower value
Outline: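 Three-cell-type spheroids modelling solid tumor plus stroma served as the readout system; POL inhibitors were tested individually and in combination, concentration ranges set by clinical Cmax where known.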

[1] = second compound 0.0316 µM, first compound 0.0316 µM
[2] = second compound 0.0316 µM, first compound 0.1 µM
[3] = second compound 0.0316 µM, first compound 0.316 µM
[4] = second compound 0.0316 µM, first compound 1 µM
[5] = second compound 0.0316 µM, first compound 3.16 µM
[6] = second compound 0.0316 µM, first compound 10 µM
[7] = second compound 0.1 µM, first compound 0.0316 µM
[8] = second compound 0.1 µM, first compound 0.1 µM
[9] = second compound 0.1 µM, first compound 0.316 µM
[10] = second compound 0.1 µM, first compound 1 µM
[11] = second compound 0.1 µM, first compound 3.16 µM
[12] = second compound 0.1 µM, first compound 10 µM
[13] = second compound 0.316 µM, first compound 0.0316 µM
[14] = second compound 0.316 µM, first compound 0.1 µM
[15] = second compound 0.316 µM, first compound 0.316 µM
[16] = second compound 0.316 µM, first compound 1 µM
[17] = second compound 0.316 µM, first compound 3.16 µM
[18] = second compound 0.316 µM, first compound 10 µM
[19] = second compound 1 µM, first compound 0.0316 µM
[20] = second compound 1 µM, first compound 0.1 µM
[21] = second compound 1 µM, first compound 0.316 µM
[22] = second compound 1 µM, first compound 1 µM
[23] = second compound 1 µM, first compound 3.16 µM
[24] = second compound 1 µM, first compound 10 µM
[25] = second compound 3.16 µM, first compound 0.0316 µM
[26] = second compound 3.16 µM, first compound 0.1 µM
[27] = second compound 3.16 µM, first compound 0.316 µM
[28] = second compound 3.16 µM, first compound 1 µM
[29] = second compound 3.16 µM, first compound 3.16 µM
[30] = second compound 3.16 µM, first compound 10 µM
[31] = second compound 10 µM, first compound 0.0316 µM
[32] = second compound 10 µM, first compound 0.1 µM
[33] = second compound 10 µM, first compound 0.316 µM
[34] = second compound 10 µM, first compound 1 µM
[35] = second compound 10 µM, first compound 3.16 µM
[36] = second compound 10 µM, first compound 10 µM
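Further: spheroids exposed to drugs for seven days before viability read.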
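Wherever viability, T/C is given: 100% = DMSO vehicle control wells.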

## C=CC(=O)N1CCN(c2nc(=O)n(-c3c(C)ccnc3C(C)C)c3nc(-c4c(O)cccc4F)c(F)cc23)C(C)C1 (stereo unspecified) + COC1C(OC(N)=O)C(O)C(Oc2ccc3c(O)c(NC(=O)c4ccc(O)c(CC=C(C)C)c4)c(=O)oc3c2C)OC1(C)C
Second compound 0.0316 µM
  pIC50: < 5.00
Second compound 0.1 µM
  pIC50: < 5.00
Second compound 0.316 µM
  pIC50: < 5.00
Second compound 1 µM
  pIC50: < 5.00
Second compound 3.16 µM
  pIC50: < 5.00
Second compound 10 µM
  pIC50: < 5.00
[1]
  viability, T/C: 107%
[2]
  viability, T/C: 88.4%
[3]
  viability, T/C: 107%
[4]
  viability, T/C: 82.9%
[5]
  viability, T/C: 131%
[6]
  viability, T/C: 111%
[7]
  viability, T/C: 85.3%
[8]
  viability, T/C: 110%
[9]
  viability, T/C: 90.8%
[10]
  viability, T/C: 99.3%
[11]
  viability, T/C: 104%
[12]
  viability, T/C: 126%
[13]
  viability, T/C: 129%
[14]
  viability, T/C: 87.2%
[15]
  viability, T/C: 103%
[16]
  viability, T/C: 80.7%
[17]
  viability, T/C: 85.5%
[18]
  viability, T/C: 115%
[19]
  viability, T/C: 101%
[20]
  viability, T/C: 86.4%
[21]
  viability, T/C: 101%
[22]
  viability, T/C: 107%
[23]
  viability, T/C: 102%
[24]
  viability, T/C: 113%
[25]
  viability, T/C: 117%
[26]
  viability, T/C: 99.7%
[27]
  viability, T/C: 93.4%
[28]
  viability, T/C: 96.9%
[29]
  viability, T/C: 102%
[30]
  viability, T/C: 111%
[31]
  viability, T/C: 102%
[32]
  viability, T/C: 81.3%
[33]
  viability, T/C: 106%
[34]
  viability, T/C: 94.7%
[35]
  viability, T/C: 103%
[36]
  viability, T/C: 118%

## CCc1cc2c(N3CCc4c(cc(Cn5ccnc5)cc4-c4cn(C)nc4C(F)(F)F)C3=O)ccnc2c(OC)n1 + COC1C(OC(N)=O)C(O)C(Oc2ccc3c(O)c(NC(=O)c4ccc(O)c(CC=C(C)C)c4)c(=O)oc3c2C)OC1(C)C
Second compound 0.0316 µM
  pIC50: < 5.00
Second compound 0.1 µM
  pIC50: < 5.00
Second compound 0.316 µM
  pIC50: < 5.00
Second compound 1 µM
  pIC50: < 5.00
Second compound 3.16 µM
  pIC50: < 5.00
Second compound 10 µM
  pIC50: < 5.00
[1]
  viability, T/C: 73.3%
[2]
  viability, T/C: 86.7%
[3]
  viability, T/C: 72.2%
[4]
  viability, T/C: 94.4%
[5]
  viability, T/C: 82.7%
[6]
  viability, T/C: 65.9%
[7]
  viability, T/C: 85.7%
[8]
  viability, T/C: 77.2%
[9]
  viability, T/C: 64.6%
[10]
  viability, T/C: 83.8%
[11]
  viability, T/C: 86.5%
[12]
  viability, T/C: 64.5%
[13]
  viability, T/C: 97.2%
[14]
  viability, T/C: 62.6%
[15]
  viability, T/C: 85%
[16]
  viability, T/C: 73.2%
[17]
  viability, T/C: 90.5%
[18]
  viability, T/C: 70.3%
[19]
  viability, T/C: 64.7%
[20]
  viability, T/C: 81.9%
[21]
  viability, T/C: 62.5%
[22]
  viability, T/C: 63.9%
[23]
  viability, T/C: 87.5%
[24]
  viability, T/C: 62.1%
[25]
  viability, T/C: 74.5%
[26]
  viability, T/C: 85.5%
[27]
  viability, T/C: 88.5%
[28]
  viability, T/C: 59.5%
[29]
  viability, T/C: 73.5%
[30]
  viability, T/C: 72%
[31]
  viability, T/C: 69.7%
[32]
  viability, T/C: 67.2%
[33]
  viability, T/C: 66.1%
[34]
  viability, T/C: 73.6%
[35]
  viability, T/C: 81.2%
[36]
  viability, T/C: 72.2%

## COc1ccc([C@@H](O)c2cc(-c3ncnc4cc(N5CCOCC5)ccc34)c(F)cc2Cl)nn1 + COC1C(OC(N)=O)C(O)C(Oc2ccc3c(O)c(NC(=O)c4ccc(O)c(CC=C(C)C)c4)c(=O)oc3c2C)OC1(C)C
Second compound 0.0316 µM
  pIC50: 5.26
Second compound 0.1 µM
  pIC50: 5.33
Second compound 0.316 µM
  pIC50: 5.34
Second compound 1 µM
  pIC50: 5.49
Second compound 3.16 µM
  pIC50: 5.18
Second compound 10 µM
  pIC50: 5.18
[1]
  viability, T/C: 96.2%
[2]
  viability, T/C: 131%
[3]
  viability, T/C: 106%
[4]
  viability, T/C: 76.4%
[5]
  viability, T/C: 67.5%
[6]
  viability, T/C: 36.3%
[7]
  viability, T/C: 111%
[8]
  viability, T/C: 106%
[9]
  viability, T/C: 75%
[10]
  viability, T/C: 89.2%
[11]
  viability, T/C: 64.4%
[12]
  viability, T/C: 26.6%
[13]
  viability, T/C: 102%
[14]
  viability, T/C: 103%
[15]
  viability, T/C: 98.2%
[16]
  viability, T/C: 59.3%
[17]
  viability, T/C: 66.3%
[18]
  viability, T/C: 35.1%
[19]
  viability, T/C: 113%
[20]
  viability, T/C: 125%
[21]
  viability, T/C: 111%
[22]
  viability, T/C: 85.2%
[23]
  viability, T/C: 51.6%
[24]
  viability, T/C: 33.9%
[25]
  viability, T/C: 115%
[26]
  viability, T/C: 97.8%
[27]
  viability, T/C: 108%
[28]
  viability, T/C: 81.4%
[29]
  viability, T/C: 73%
[30]
  viability, T/C: 38.1%
[31]
  viability, T/C: 95.8%
[32]
  viability, T/C: 72.4%
[33]
  viability, T/C: 96.4%
[34]
  viability, T/C: 70.4%
[35]
  viability, T/C: 80%
[36]
  viability, T/C: 34.8%
